The record followed here is the supplement of paper PMC12463676, “Small-molecule dissolution of stress granules by redox modulation benefits ALS models” (Nature Chemical Biology, 2025).

Compound in one assay: NC(=O)CCCCC1CCSS1 [lipoamide]
Nature of the assay: thermal stability z-score vs DMSO; higher = more thermally stabilized by treatment. As to conditions: HeLa, lipoamide concentration 100 µM. The procedure:
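Cellular thermal proteome profiling in HeLa cells. Cells were treated with 100 µM lipoamide for 1 h, with or without 1 mM arsenate for a further 1 h, then heated to ten temperatures (37-66.3 °C), and soluble protein was quantified by TMT mass spectrometry relative to 0.1% DMSO controls. The thermal stability score (sum of log2 fold changes minus the abundance score) was transformed to a z-score; mean of n = 3 experiments.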

Compound in another assay: O=[As]([O-])(O)O.[K+] [potassium arsenate]
The assay is described as above. As to conditions: HeLa; arsenate concentration 1 mM. How it is done: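 Cellular thermal proteome profiling in HeLa cells treated with 1 mM arsenate for 1 h (DMSO pretreatment), heated to ten temperatures (37-66.3 °C). Soluble protein was quantified by TMT mass spectrometry relative to DMSO controls; the thermal stability score was transformed to a z-score; mean of n = 3 experiments.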

[1] abbreviates: arsenate co-treatment: 1 mM arsenate 1 h.
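Also: each temperature applied for 3 min, abundance score taken as mean log2 fold change at the two lowest temperatures, z-score obtained by mean subtraction and division by SD.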

Chain of UniProt Q7Z3V4 (Q7Z3V4 whole entry): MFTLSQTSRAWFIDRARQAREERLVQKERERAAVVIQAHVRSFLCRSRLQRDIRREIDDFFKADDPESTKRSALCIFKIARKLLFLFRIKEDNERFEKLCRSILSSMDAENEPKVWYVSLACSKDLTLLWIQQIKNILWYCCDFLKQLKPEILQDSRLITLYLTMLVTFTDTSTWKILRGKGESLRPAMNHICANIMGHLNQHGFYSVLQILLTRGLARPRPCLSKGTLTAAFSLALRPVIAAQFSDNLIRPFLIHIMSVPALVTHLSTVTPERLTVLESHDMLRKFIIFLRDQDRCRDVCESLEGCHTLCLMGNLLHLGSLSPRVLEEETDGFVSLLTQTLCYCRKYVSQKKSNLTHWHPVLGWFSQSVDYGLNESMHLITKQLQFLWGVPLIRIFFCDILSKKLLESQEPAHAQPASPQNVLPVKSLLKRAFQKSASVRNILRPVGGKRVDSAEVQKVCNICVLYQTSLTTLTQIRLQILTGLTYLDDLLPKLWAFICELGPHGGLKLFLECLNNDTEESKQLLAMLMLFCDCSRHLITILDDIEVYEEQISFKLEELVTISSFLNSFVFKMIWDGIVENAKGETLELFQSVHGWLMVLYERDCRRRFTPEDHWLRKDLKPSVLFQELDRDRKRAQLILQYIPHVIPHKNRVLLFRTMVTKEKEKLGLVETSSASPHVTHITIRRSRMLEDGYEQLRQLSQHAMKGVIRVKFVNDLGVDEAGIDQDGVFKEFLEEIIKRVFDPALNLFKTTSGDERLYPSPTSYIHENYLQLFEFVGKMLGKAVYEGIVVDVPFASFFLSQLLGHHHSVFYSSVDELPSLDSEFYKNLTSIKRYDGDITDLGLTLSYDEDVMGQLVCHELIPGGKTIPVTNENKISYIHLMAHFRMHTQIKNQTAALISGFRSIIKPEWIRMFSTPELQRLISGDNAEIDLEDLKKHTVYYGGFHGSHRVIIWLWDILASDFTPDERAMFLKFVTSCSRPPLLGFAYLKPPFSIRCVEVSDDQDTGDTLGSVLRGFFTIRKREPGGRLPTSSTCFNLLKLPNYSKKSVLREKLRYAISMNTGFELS
Chain of UniProt Q8WY36 (Q8WY36 whole entry): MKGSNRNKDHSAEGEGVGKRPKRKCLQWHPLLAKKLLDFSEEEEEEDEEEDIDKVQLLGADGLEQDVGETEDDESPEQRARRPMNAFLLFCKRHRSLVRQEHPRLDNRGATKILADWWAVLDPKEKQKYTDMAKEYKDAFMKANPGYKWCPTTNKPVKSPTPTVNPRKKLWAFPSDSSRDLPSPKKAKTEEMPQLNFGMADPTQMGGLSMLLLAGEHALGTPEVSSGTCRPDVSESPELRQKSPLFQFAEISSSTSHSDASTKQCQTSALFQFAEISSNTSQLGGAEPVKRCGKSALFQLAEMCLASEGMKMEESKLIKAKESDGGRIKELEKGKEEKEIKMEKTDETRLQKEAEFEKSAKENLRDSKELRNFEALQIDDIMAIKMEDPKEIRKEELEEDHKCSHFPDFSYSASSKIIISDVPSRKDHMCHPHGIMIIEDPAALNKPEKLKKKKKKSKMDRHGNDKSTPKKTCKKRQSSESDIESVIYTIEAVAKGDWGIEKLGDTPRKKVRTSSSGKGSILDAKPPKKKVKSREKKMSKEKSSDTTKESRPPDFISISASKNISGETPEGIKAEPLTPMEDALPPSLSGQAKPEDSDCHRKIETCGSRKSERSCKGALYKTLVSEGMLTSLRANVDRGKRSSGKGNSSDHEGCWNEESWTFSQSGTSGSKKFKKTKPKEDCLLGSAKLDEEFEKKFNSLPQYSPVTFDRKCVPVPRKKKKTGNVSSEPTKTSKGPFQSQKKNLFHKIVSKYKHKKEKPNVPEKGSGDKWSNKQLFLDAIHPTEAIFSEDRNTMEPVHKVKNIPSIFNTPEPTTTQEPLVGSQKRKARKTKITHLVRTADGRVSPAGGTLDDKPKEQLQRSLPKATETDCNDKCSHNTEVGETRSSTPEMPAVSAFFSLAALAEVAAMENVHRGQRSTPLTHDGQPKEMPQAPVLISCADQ
Chain of UniProt Q9BY50 (Q9BY50 whole entry): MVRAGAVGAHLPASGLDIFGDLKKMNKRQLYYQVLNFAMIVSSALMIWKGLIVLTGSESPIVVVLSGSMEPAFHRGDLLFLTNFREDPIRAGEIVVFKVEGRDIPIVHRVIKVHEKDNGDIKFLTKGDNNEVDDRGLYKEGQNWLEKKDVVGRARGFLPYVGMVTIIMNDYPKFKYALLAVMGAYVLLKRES
Chain of UniProt Q6NS38 (Q6NS38 whole entry): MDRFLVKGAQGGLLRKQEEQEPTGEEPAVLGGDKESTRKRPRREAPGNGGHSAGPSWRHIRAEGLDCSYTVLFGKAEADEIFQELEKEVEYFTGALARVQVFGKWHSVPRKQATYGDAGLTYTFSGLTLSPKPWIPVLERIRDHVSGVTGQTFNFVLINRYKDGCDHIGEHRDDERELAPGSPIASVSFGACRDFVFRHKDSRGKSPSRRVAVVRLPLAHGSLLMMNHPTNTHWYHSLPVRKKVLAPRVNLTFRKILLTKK
Chain of UniProt Q08170 (Q08170 whole entry): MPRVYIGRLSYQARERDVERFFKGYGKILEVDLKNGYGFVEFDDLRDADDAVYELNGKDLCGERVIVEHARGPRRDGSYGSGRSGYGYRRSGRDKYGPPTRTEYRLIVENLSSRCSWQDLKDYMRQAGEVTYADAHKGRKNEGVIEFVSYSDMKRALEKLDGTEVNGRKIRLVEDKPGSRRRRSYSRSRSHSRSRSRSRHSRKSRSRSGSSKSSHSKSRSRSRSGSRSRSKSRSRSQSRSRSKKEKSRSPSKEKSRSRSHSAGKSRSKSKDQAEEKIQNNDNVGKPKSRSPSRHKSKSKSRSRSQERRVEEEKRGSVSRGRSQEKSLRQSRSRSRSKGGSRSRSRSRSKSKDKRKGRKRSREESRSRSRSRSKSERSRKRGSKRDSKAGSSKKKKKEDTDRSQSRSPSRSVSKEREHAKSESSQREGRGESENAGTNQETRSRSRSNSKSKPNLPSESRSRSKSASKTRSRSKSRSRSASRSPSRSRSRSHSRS
Chain of UniProt Q9NRM2 (Q9NRM2 whole entry): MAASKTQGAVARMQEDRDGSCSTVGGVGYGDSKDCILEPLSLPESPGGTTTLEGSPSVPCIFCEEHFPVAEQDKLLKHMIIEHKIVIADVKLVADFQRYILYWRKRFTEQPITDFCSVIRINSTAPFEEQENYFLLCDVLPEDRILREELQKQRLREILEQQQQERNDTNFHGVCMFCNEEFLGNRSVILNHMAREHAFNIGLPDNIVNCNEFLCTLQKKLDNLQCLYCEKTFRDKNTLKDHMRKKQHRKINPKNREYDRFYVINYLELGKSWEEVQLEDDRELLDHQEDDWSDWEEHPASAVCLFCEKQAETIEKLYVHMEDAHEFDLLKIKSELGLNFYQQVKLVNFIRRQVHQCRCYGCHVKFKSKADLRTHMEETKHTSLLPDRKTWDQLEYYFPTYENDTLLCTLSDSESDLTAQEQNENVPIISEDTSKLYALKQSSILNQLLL
Chain of UniProt O94763 (O94763 whole entry): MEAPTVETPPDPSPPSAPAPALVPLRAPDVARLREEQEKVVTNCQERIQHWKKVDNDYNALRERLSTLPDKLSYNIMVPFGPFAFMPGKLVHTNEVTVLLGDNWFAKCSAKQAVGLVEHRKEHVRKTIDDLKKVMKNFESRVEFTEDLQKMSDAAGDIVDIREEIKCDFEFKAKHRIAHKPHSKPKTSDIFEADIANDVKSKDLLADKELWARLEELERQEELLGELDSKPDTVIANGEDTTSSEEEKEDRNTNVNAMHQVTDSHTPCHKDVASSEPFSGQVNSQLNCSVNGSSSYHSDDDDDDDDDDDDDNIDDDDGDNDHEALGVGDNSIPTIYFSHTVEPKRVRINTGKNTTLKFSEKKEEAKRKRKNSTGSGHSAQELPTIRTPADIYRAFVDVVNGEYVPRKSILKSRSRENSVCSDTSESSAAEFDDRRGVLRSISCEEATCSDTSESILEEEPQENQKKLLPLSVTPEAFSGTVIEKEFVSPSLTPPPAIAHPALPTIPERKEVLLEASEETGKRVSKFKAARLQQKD
Chain of UniProt Q9GZN1 (Q9GZN1 whole entry): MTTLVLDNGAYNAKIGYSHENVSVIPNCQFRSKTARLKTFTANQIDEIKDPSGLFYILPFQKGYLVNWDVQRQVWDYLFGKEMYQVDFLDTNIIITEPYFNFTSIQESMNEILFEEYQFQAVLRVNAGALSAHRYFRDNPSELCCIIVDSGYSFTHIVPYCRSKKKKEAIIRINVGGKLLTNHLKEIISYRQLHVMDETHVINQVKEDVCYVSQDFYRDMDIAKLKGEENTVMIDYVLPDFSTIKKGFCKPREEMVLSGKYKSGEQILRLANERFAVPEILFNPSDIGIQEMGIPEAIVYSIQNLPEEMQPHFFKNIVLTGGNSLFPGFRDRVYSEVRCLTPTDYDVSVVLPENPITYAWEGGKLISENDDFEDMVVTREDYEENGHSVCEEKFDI
Chain of UniProt Q92688 (Q92688 whole entry): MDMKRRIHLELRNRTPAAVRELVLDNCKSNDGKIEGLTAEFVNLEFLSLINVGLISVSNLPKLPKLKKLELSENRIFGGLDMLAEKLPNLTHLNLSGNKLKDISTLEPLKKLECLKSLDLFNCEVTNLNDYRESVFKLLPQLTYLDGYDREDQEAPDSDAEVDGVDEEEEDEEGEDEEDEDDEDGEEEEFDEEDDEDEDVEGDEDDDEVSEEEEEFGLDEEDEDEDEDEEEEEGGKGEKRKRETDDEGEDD
Chain of UniProt Q29983 (Q29983 whole entry): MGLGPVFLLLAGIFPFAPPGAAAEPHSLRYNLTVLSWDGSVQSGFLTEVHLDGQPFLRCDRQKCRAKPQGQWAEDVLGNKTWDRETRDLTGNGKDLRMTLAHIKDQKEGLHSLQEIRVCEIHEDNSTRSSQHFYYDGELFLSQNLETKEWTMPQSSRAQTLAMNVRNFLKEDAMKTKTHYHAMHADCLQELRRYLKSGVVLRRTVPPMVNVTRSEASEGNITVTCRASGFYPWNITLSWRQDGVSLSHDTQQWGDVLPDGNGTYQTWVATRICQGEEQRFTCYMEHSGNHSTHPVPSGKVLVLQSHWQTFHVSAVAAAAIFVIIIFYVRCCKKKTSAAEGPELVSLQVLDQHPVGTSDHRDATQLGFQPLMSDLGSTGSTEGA

On to MAPRE1 (UniProt Q15691), for which the figures for the thermal stability z-score with lipoamide (setting [1]), with lipoamide (arsenate co-treatment: none) and in the assay with potassium arsenate were 0.796, 0.705 and 0.154, respectively.
Taken in the same sequence, the figures for SRSF4 (UniProt Q08170) were 1.95, 1.28 and -0.0178.
With VPS53 (UniProt Q5VIR6), the values for the thermal stability z-score with lipoamide (setting [1]), in the assay with lipoamide (arsenate co-treatment: none) and with potassium arsenate were 0.332, 0.126 and -0.0122, respectively.
Take PPHLN1 (UniProt Q8NEY8): the thermal stability z-score in the assay with lipoamide (setting [1]) was 0.687; in the assay with lipoamide (arsenate co-treatment: none), 0.672; with potassium arsenate, -0.137.
For UBE3B (UniProt Q7Z3V4), in that order: -0.0453, -0.155 and -0.212.
Taken in the same sequence, the figures for SLC30A5 (UniProt Q8TAD4) were -0.202, -0.453 and -0.849.
For CLCN7 (UniProt P51798), in that order: -0.792, -0.489 and 0.0852.
As for BBX (UniProt Q8WY36), the thermal stability z-score with lipoamide (setting [1]) is -0.177; with lipoamide (arsenate co-treatment: none) it was -0.12; with potassium arsenate it was -0.402.
With TIMM50 (UniProt Q3ZCQ8), the results for the thermal stability z-score with lipoamide (setting [1]), in the assay with lipoamide (arsenate co-treatment: none) and with potassium arsenate were -0.412, -0.179 and -0.391, respectively.
As for MST1R (UniProt Q04912), the values for the thermal stability z-score with lipoamide (setting [1]), in the assay with lipoamide (arsenate co-treatment: none) and in the assay with potassium arsenate were -0.0878, 0.0193 and -0.0232, respectively.
For URI1 (UniProt O94763), in that order: -0.325, -0.193 and 0.52.
Turning to CYC1 (UniProt P08574), the thermal stability z-score with lipoamide (setting [1]) is 0.0943; with lipoamide (arsenate co-treatment: none), -0.0471; with potassium arsenate it was -1.31.
In the case of ACAA2 (UniProt P42765), the thermal stability z-score was 0.0666 with lipoamide (setting [1]), 0.0527 with lipoamide (arsenate co-treatment: none) and -0.24 in the assay with potassium arsenate.
As for ZNF277 (UniProt Q9NRM2), the thermal stability z-score with lipoamide (setting [1]) is 0.365; with lipoamide (arsenate co-treatment: none), 0.166; with potassium arsenate, -0.515.
In the case of PLXNB2 (UniProt O15031), the thermal stability z-score with lipoamide (setting [1]) was 0.453; in the assay with lipoamide (arsenate co-treatment: none) it was 0.113; with potassium arsenate, -0.338.
As to TSPO, the thermal stability z-score is -0.334 with lipoamide (setting [1]), 0.17 with lipoamide (arsenate co-treatment: none) and 0.892 with potassium arsenate.
Taken in the same sequence, the figures for MICA (UniProt Q29983) were -1.72, -3.33 and -0.775.
As to SEC11C (UniProt Q9BY50), the thermal stability z-score with lipoamide (setting [1]) was -0.973; in the assay with lipoamide (arsenate co-treatment: none) it was -0.842; with potassium arsenate, 0.222.
For GNPTAB (UniProt Q3T906), in that order: -2.42, -1.66 and -0.467.
Turning to MED15 (UniProt Q96RN5), the thermal stability z-score with lipoamide (setting [1]) was -0.382; with lipoamide (arsenate co-treatment: none), -0.574; with potassium arsenate it was -2.01.
With SMU1 (UniProt Q2TAY7), the thermal stability z-score in the assay with lipoamide (setting [1]) was -0.141; with lipoamide (arsenate co-treatment: none) it was -0.0867; in the assay with potassium arsenate, 0.656.
For the target SFR1 (UniProt Q86XK3), the thermal stability z-score with lipoamide (setting [1]) is -0.12; in the assay with lipoamide (arsenate co-treatment: none), -0.359; in the assay with potassium arsenate, 0.036.
For EIF2B1 (UniProt Q14232), in that order: 0.317, 0.317 and 0.364.
On to LARS2 (UniProt Q15031), for which the figures for the thermal stability z-score with lipoamide (setting [1]), with lipoamide (arsenate co-treatment: none) and with potassium arsenate were -0.0508, 0.0433 and -0.741, respectively.
On to ALKBH2 (UniProt Q6NS38), for which the thermal stability z-score in the assay with lipoamide (setting [1]) was determined as 0.407; with lipoamide (arsenate co-treatment: none) it was 0.149; with potassium arsenate it was 1.45.
For ANP32B (UniProt Q92688), in that order: -0.711, -0.129 and -0.513.
Taken in the same sequence, the figures for ANXA7 (UniProt P20073) were 1.98, 1.08 and 0.966.
As to ACTR6 (UniProt Q9GZN1), the results for the thermal stability z-score in the assay with lipoamide (setting [1]), in the assay with lipoamide (arsenate co-treatment: none) and with potassium arsenate were 0.151, -0.182 and -0.13, respectively.
